Assay results as given in patent US20160347739A1, “5-OXOPYRROLIDINE DERIVATIVES AS HIV INTEGRASE INHIBITORS” (priority 2014, published 2016).
“Also recorded” adds a separate entry of the source.

Target: T1, eGFP-MBP-IN-WT (HIV-1 integrase fusion protein) (Human immunodeficiency virus type 1 group M subtype B, UniProt P04585)
T1 construct: as well as integrase wild type (eGFP-MBP-IN-WT) DNA plasmid; expressed in transfected cells; host or cells: HEK 293T cells; plasmid from Dr. Mark A. Muesing (Rockefeller University)
Test: cellular integrase screening assay (C-terminal domain of HIV-1 IN nuclear import inhibition)
Format: cell-based
Conditions: HEK 293T cells transfected with eGFP-MBP-IN-WT plasmid; compounds at 10, 3.3, 1.1 and 0.33 μM, 0.1% DMSO; fluorescence microscopy
Protocol: In assessing suitability of a compound according to any of the formulas herein, an integrase screening assay can be conducted. In the present case, an exemplary such assay is a cellular integrase assay. A cellular integrase assay can be performed in a 24 well plate. The assay is designed to test compounds in 3-fold serial dilutions (10, 3.3, 1.1 and 0.33 μM) with 0.1% DMSO. Negative and positive control included eGFP-MBP-IN-R262/3/6A, eGFP-MBP-IN-K236/240 and eGFP-MBP-IN-WT respectively supplemented with 0.1% DMSO. Refinement of the assay for optimal results is feasible. For example, refinement herein yields the following protocol. HEK 293T cells (˜0.4*10̂5 cells/ml) are seeded and incubated at 37° C. (5% CO2) for ˜3 days on Poly-L-lysine treated glass coverslips until 80-90% confluent (˜3.2*10̂5 cells/ml). […] Images may be prepared using an Olympus 1X51 fluorescence microscope equipped with a camera by way of example. […]
As an integrase screening assay, a cellular integrase assay was performed in a 24 well plate. […] Slides were visualized and images, of at least 2 fields per glass disk, were taken with an Olympus 1X51 fluorescence microscope equipped with a camera. […]

## N-(3-ethoxy propyl)-1-[2-(5-methyl-1H-indol-3-yl)ethyl]-5-oxopyrrolidine [compound 209]
  localization phenotype of eGFP-MBP-IN-WT fusion protein (inhibition of nuclear import of IN): nuclear exclusion of the fusion protein; also recorded: exhibited inhibition against HIV to prevent nuclear import of the HIV integrase; also recorded: inhibition of nuclear import of IN
